Source: ChEMBL document CHEMBL5223141, “New cycloalkyl[b]thiophenylnicotinamide-based α-glucosidase inhibitors as promising anti-diabetic agents: Synthesis, in silico study, in vitro and in vivo evaluations” (Bioorg Med Chem Lett, 2023)
Calls of active or inactive are those of the source. The calls are words filed in the database; no cut-off is given here.

Key:
[1] = target: Maltase-glucoamylase (Homo sapiens) (UniProt O43451); assay: Mixed type inhibition of alpha-glucosidase (unknown origin) assessed as decrease in Vmax by measuring increase in slope using pNPG as substrate at upto 25 uM by Lineweaver-Burk plot analysis
Chain of Maltase-glucoamylase (Homo sapiens) (O43451 whole entry, looked up): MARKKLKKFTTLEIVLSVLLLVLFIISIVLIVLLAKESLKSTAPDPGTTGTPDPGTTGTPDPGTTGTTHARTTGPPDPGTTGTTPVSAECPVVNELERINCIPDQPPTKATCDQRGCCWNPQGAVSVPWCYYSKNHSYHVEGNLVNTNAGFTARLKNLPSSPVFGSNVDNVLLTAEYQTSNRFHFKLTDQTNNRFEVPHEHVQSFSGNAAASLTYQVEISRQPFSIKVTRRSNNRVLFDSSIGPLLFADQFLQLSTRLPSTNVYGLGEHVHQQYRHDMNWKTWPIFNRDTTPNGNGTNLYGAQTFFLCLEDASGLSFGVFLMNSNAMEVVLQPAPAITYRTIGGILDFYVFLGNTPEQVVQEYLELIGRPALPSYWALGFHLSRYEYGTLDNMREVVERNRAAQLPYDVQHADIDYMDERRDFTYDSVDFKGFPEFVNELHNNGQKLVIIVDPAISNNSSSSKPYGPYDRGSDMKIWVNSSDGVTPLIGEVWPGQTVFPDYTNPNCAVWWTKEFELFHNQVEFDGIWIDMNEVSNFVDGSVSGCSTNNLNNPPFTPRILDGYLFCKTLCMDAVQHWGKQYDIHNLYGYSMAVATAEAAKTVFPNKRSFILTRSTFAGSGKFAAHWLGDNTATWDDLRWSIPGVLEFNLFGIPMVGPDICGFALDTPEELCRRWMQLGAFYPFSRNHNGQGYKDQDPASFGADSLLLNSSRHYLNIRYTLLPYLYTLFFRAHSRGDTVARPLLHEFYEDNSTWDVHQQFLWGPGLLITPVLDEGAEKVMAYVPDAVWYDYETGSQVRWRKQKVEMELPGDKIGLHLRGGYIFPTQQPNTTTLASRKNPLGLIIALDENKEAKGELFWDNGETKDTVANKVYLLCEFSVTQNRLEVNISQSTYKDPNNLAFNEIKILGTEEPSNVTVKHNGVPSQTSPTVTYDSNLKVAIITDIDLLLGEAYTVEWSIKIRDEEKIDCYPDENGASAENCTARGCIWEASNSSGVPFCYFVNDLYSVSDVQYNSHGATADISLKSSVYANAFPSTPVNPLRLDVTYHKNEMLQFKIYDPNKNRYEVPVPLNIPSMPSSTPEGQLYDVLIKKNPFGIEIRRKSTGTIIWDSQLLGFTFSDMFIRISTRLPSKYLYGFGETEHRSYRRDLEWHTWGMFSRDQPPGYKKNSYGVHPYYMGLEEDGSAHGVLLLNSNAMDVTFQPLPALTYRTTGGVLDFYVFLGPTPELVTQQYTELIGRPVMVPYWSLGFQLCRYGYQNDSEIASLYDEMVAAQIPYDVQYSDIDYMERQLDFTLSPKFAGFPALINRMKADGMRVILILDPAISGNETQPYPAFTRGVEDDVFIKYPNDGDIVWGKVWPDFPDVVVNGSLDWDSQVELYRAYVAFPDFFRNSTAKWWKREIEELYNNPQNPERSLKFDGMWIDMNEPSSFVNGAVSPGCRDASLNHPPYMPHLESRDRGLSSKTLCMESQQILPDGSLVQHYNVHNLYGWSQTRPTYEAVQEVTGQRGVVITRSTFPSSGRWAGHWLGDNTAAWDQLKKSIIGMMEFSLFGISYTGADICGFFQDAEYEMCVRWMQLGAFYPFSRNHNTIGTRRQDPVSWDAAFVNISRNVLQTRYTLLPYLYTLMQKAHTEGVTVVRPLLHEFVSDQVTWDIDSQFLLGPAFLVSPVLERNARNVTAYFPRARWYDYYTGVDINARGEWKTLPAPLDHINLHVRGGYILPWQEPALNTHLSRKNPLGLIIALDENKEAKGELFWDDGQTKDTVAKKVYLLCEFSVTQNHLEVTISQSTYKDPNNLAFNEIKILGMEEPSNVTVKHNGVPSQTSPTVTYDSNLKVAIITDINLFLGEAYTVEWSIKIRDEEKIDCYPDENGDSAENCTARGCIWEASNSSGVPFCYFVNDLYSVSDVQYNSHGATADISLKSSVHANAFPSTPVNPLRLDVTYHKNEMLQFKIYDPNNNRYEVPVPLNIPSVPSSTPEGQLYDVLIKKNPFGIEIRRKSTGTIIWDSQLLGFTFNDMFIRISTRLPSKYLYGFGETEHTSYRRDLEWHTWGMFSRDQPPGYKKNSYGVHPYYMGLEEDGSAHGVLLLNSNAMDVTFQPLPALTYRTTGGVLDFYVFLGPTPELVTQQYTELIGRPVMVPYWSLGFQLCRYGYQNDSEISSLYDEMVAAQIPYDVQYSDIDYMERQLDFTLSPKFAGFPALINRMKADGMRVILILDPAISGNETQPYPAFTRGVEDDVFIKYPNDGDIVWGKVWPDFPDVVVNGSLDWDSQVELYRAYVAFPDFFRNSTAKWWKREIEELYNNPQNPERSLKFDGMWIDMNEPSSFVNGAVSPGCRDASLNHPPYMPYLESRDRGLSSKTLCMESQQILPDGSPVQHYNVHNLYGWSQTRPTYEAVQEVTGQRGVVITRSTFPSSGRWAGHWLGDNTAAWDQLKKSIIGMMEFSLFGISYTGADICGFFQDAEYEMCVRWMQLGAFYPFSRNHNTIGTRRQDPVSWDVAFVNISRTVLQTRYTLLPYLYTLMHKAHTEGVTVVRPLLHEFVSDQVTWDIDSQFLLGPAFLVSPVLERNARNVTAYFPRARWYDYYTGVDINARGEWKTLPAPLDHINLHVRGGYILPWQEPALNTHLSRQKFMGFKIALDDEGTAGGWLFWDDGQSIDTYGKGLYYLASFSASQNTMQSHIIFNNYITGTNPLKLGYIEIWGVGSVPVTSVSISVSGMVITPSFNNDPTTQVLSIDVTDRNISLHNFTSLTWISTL

Alpha amylase = target: T1, Alpha amylase (Homo sapiens, UniProt P0DUB6); assay: Inhibition of alpha-amylase (unknown origin)
T1 sequence (P0DUB6 whole entry): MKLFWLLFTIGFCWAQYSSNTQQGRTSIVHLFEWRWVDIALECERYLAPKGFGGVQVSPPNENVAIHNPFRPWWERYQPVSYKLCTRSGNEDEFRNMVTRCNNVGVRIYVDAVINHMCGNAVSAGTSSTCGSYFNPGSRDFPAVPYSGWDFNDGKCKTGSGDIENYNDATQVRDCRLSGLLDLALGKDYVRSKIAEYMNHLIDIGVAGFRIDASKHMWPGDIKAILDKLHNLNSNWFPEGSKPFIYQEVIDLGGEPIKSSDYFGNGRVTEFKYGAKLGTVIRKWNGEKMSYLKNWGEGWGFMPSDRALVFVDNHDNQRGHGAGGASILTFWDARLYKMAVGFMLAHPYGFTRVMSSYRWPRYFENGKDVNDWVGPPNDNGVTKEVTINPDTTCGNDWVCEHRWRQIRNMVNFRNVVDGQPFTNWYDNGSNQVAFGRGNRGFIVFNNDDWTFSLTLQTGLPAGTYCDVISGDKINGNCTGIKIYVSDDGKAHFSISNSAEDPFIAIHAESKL

[2] = target: Maltase-glucoamylase (Homo sapiens) (UniProt O43451); assay: Mixed type inhibition of alpha-glucosidase (unknown origin) assessed as increase in Km by measuring increase in intercept using pNPG as substrate at upto 25 uM by Lineweaver-Burk plot analysis
[3] = target: Maltase-glucoamylase (Homo sapiens) (UniProt O43451); assay: Inhibition of alpha-glucosidase (unknown origin) assessed as increase in intrinsic fluorescence emission; conditions: dose 0-100 µM
Rattus norvegicus [4] = assay: Anti-hyperglycemic activity in sucrose loaded Sprague-Dawley rat assessed as decrease in blood glucose level at 5 mg/kg, po measured after 45 mins by oral sucrose tolerance test; format: functional; conditions: 0.75 h
L02 = assay: Cytotoxicity against human L02 cells at 100 uM by MTT assay; format: toxicity, cell-based; conditions: l02, 100 µM
Homo sapiens = species: Homo sapiens; assay: Selectivity ratio of IC50 for alpha-amylase (unknown origin) to IC50 for alpha-glucosidase (unknown origin)
Rattus norvegicus [5] = assay: Anti-hyperglycemic activity in sucrose loaded Sprague-Dawley rat assessed as blood glucose level at 5 mg/kg, po measured at 30 mins by oral sucrose tolerance test (reference value: 10.80+/-0.92 mmol/L); format: functional; conditions: 0.5 h
[6] = target: Maltase-glucoamylase (Homo sapiens) (UniProt O43451); assay: Inhibition of alpha-glucosidase (unknown origin) at 100 uM relative to control
HepG2 = assay: Cytotoxicity against human HepG2 cells at 100 uM by MTT assay; format: toxicity, cell-based; conditions: hepg2, 100 µM

Compound	Activity (L02)	inhibition [6]	Activity (HepG2)	other results
COc1cc(CNC(=O)c2c(NC(=O)c3cccnc3)sc3c2CCCC3)ccc1O	Non-Toxic	93.6%	Non-Toxic	Activity [1]: Active; IC50 (Alpha amylase): 72.9 µM; Activity [2]: Active; Activity [3]: Dose-Dependent Effect; Activity (Rattus norvegicus [4]): 9.9 mmol/L; Ratio IC50 (Homo sapiens): 7.4; Activity (Rattus norvegicus [5]): 9.73 mmol/L
COc1cc2c(cc1OC)CN(C(=O)c1c(NC(=O)c3cccnc3)sc3c1CCC3)CC2	Non-Toxic	23.2%	Non-Toxic	–
O=C(Nc1sc2c(c1C(=O)NCc1cccnc1)CCCCC2)c1cccnc1	–	26.5%	–	–
O=C(Nc1sc2c(c1C(=O)NCc1cccnc1)CCCC2)c1cccnc1	Non-Toxic	62.7%	Non-Toxic	IC50 (Alpha amylase): 48.1 µM; Ratio IC50 (Homo sapiens): 0.9
O=C(Nc1sc2c(c1C(=O)NCc1ccccn1)CCCC2)c1cccnc1	Non-Toxic	57.2%	Non-Toxic	IC50 (Alpha amylase): 94.8 µM; Ratio IC50 (Homo sapiens): 1.5
O=C(Nc1sc2c(c1C(=O)NCc1ccccc1)CCCC2)c1cccnc1	Non-Toxic	64.4%	Non-Toxic	IC50 (Alpha amylase): 76.1 µM; Ratio IC50 (Homo sapiens): 1.7
O=C(Nc1sc2c(c1C(=O)NCc1ccccc1)CCC2)c1cccnc1	Non-Toxic	56.6%	Non-Toxic	–
COC(=O)c1ccc(CNC(=O)c2c(NC(=O)c3cccnc3)sc3c2CCCCC3)cc1	–	18.1%	–	–
O=C(Nc1sc2c(c1C(=O)NCc1ccccn1)CCCCC2)c1cccnc1	–	26.8%	–	–
O=C(Nc1sc2c(c1C(=O)NCc1ccncc1)CCCC2)c1cccnc1	–	44.1%	–	–
C[C@H]1O[C@H](O[C@H]2[C@H](O)[C@@H](O)[C@@H](O[C@H]3[C@H](O)[C@@H](O)C(O)O[C@@H]3CO)O[C@@H]2CO)[C@H](O)[C@@H](O)[C@@H]1N[C@H]1C=C(CO)[C@@H](O)[C@H](O)[C@H]1O (stereo partly drawn) [ACARBOSE]	Non-Toxic	–	Non-Toxic	Activity (Rattus norvegicus [4]): 9.89 mmol/L; Activity (Rattus norvegicus [5]): 9.57 mmol/L
O=C(Nc1sc2c(c1C(=O)NCc1ccccn1)CCC2)c1cccnc1	Non-Toxic	30.5%	Non-Toxic	–
O=C(Nc1sc2c(c1C(=O)NCc1ccncc1)CCCCC2)c1cccnc1	–	9.2%	–	–
O=C(Nc1sc2c(c1C(=O)NCc1ccncc1)CCC2)c1cccnc1	Non-Toxic	1.1%	Non-Toxic	–
O=C(Nc1sc2c(c1C(=O)NCc1ccccc1)CCCCC2)c1cccnc1	–	59%	–	–
COc1ccc(CNC(=O)c2c(NC(=O)c3cccnc3)sc3c2CCC3)cc1	Non-Toxic	55.4%	Non-Toxic	–
COC(=O)c1ccc(CNC(=O)c2c(NC(=O)c3cccnc3)sc3c2CCCC3)cc1	Non-Toxic	58.2%	Non-Toxic	IC50 (Alpha amylase): 66.9 µM; Ratio IC50 (Homo sapiens): 0.8
COc1cc2c(cc1OC)CN(C(=O)c1c(NC(=O)c3cccnc3)sc3c1CCCC3)CC2	–	42.2%	–	–
COc1ccc(CNC(=O)c2c(NC(=O)c3cccnc3)sc3c2CCCCC3)cc1	–	44.1%	–	–
COc1cc(CNC(=O)c2c(NC(=O)c3cccnc3)sc3c2CCCCC3)ccc1O	–	81.7%	–	–
COc1cc(CNC(=O)c2c(NC(=O)c3cccnc3)sc3c2CCC3)ccc1O	Non-Toxic	50.6%	Non-Toxic	–
COc1ccc(CNC(=O)c2c(NC(=O)c3cccnc3)sc3c2CCCC3)cc1	Non-Toxic	78.1%	Non-Toxic	IC50 (Alpha amylase): 80.4 µM; Ratio IC50 (Homo sapiens): 2.7
COC(=O)c1ccc(CNC(=O)c2c(NC(=O)c3cccnc3)sc3c2CCC3)cc1	Non-Toxic	21.9%	Non-Toxic	–
COc1cc2c(cc1OC)CN(C(=O)c1c(NC(=O)c3cccnc3)sc3c1CCCCC3)CC2	–	29.1%	–	–
O=C(Nc1sc2c(c1C(=O)NCc1cccnc1)CCC2)c1cccnc1	Non-Toxic	12.5%	Non-Toxic	–
